From patent US8148538B2, “N-alkyl-heterocyclyl carboxamide derivatives” (Bayer Cropscience AG, priority 2005, dated 2012)

Tests used:
[1] = tested on: Alternaria brassicae; assay: In vivo test on Alternaria brassicae (leaf spot of crucifers), preventive spray on radish plants; conditions: under these conditions (radish plants, comparison compound of prior art)
Protocol: The active ingredient tested is prepared by homogenisation in DMSO (5% of the final volume), acetone (10% of the final volume) and tween 80 10% (5 μl/mg active ingredient). Radish plants (Pernot variety) in starter cups, sown on a 50/50 peat soil-pozzolana substrate and grown at 18-20° C., are treated at the cotyledon stage by spraying with the aqueous suspension described above. Plants, used as controls, are treated with an aqueous solution not containing the active material. After 24 hours, the plants are contaminated by spraying them with an aqueous suspension of Alternaria brassicae spores (40,000 spores per cm^3). The spores are collected from a 12 to 13 days-old culture. The contaminated radish plants are incubated for 6-7 days at about 18° C., under a humid atmosphere. Grading is carried out 6 to 7 days after the contamination, in comparison with the control plants. Under these conditions, good (at least 70%) or total protection is observed at a dose of 500 ppm with the following compounds: 1-2, 2-2, 2-5, 3-2, 3-5, 4-3, 4-4, 4-5, 4-6, 5-4, 5-5, 5-7, 6-1, 7-1, 7-3, 7-4, 7-6, 9-3, 10-3, 10-4, 5, 10-6, 10-8, 11-1, 11-2, 12-2, 13-1, 13-3, 13-5, 15-2, 15-3, 16-4, 19-1, 20-1, 21-1, 21-2, 22-2, 22-3, 23-1, 24-1, 24-2, 25-1, 25-3, 26-2, 27-1, 28-2, 30-1, 30-2, 31-1, 32-1 and 33-2.

[2] = tested on: Botrytis cinerea; assay: In vivo test on Botrytis cinerea (cucumber grey mould), preventive spray on cucumber plants; conditions: under these conditions (cucumber plants, comparison compounds of prior art)
Protocol: (§1) The active ingredient tested is prepared by homogenisation in DMSO (5% of the final volume), acetone (10% of the final volume) and tween 80 10% (5 μl/mg active ingredient).
(§2) Cucumber plants (Marketer variety) in starter cups, sown on a 50/50 peat soil-pozzolana substrate and grown at 18-20° C., are treated at the cotyledon Z11 stage by spraying with the aqueous suspension described above. Plants, used as controls, are treated with an aqueous solution not containing the active material.
After 24 hours, the plants are contaminated by depositing drops of an aqueous suspension of Botrytis cinerea spores (150,000 spores per ml) on upper surface of the leaves. The spores are collected from a 15-day-old culture and are suspended in a nutrient solution composed of: • 20 g/L of gelatin • 50 g/L of cane sugar • 2 g/L of NH4NO3 • 1 g/L of KH2PO4
The contaminated cucumber plants are settled for 5/7 days in a climatic room at 15-11° C. (day/night) and at 80% relative humidity.

[3] = tested on: Sphaerotheca fuliginea; assay: In vivo test on Sphaerotheca fuliginea (powdery mildew), preventive spray on gherkin plants; conditions: under these conditions (gherkin plants, comparison compounds of prior art)
Protocol: as §1
as §2, with “Gherkin” for “Cucumber”, “(Vert petit de Paris” for “(Marketer”, “20° C./23°” for “18-20°”, “at” for “at the”
After 24 hours, the plants are contaminated by spraying them with an aqueous suspension of Sphaerotheca fuliginea spores (100 000 spores per ml). The spores are collected from a contaminated plants. The contaminated gerkhin plants are incubated at about 20° C./25° C. and at 60/70% relative humidity.

[4] = tested on: Pyrenophora teres; assay: In vivo test on Pyrenophora teres (barley net blotch), preventive spray on barley plants; conditions: under these conditions (barley plants, comparison compound of prior art)
Protocol: as §1
as §2, with “Barley” for “Cucumber”, “(Express” for “(Marketer”, “12°” for “18-20°”, “1-leaf” for “cotyledon Z11”, “stage (10 cm tall)” for “stage”
After 24 hours, the plants are contaminated by spraying them with an aqueous suspension of Pyrenophora teres spores (12,000 spores per ml). The spores are collected from a 12-day-old culture. The contaminated barley plants are incubated for 24 hours at about 20° C. and at 100% relative humidity, and then for 12 days at 80% relative humidity.

SMILES	activity against Alternaria brassicae [1]	activity against Botrytis cinerea [2]	activity against Sphaerotheca fuliginea [3]	activity against Pyrenophora teres [4]
CCCCCCCCNC(=O)c1snc(Cl)c1Cl [4-dichloro-N-octylisothiazol-5-carboxamide]	did not show any activity	did not show any activity		
Cc1nnsc1C(=O)NC(C)C [N-isopropyl-4-methyl-1,2,3-thiadiazole-5-carboxamide]		did not show any activity	did not show any activity	
CCC(C)NC(=O)c1cc(C)oc1C (stereo not shown) [N-sec-butyl-2,5-dimethyl-3-furamide]		did not show any activity	did not show any activity	did not show any activity
